The results in this text go back to PMC11363900, “A single-pass type I membrane protein, mannose-specific L-type lectin, potentially involved in the adhesion and invasion of Cryptosporidium parvum” (Parasite, 2024).

For this assay, the target named is T1, CpLTL (GST-CpLTL) (Cryptosporidium parvum, UniProt Q5CWG8).
T1 construct: gene cgd6_5140; lectin-leg-like domain (nucleotides 130-852 of the ORF; domain 44-284 aa of 469), without signal peptide and TM, GST fusion kept (pGEX-4T-1), E. coli Rosetta (DE3), about 48 kDa
T1 sequence (Q5CWG8 entry or part of it): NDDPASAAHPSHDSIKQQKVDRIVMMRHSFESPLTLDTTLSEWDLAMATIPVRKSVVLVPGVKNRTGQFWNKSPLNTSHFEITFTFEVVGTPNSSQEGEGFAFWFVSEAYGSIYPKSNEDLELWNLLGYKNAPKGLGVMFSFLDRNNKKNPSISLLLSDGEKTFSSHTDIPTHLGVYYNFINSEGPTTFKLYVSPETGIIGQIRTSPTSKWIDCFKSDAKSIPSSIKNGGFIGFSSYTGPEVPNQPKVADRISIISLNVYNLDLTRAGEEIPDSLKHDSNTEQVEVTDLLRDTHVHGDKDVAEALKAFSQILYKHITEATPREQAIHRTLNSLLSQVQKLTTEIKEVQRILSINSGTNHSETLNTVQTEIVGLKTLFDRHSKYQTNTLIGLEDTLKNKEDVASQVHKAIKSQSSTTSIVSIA
In words: competition ELISA, immobilised GST-CpLTL, binding of horseradish peroxidase (mannose-rich glycoprotein), OD405. Conditions: 100 mM mannose, 50 μg/mL HRP, PBS, 4 °C overnight; competitive with HRP glycan.

On to `OC[C@H]1OC(O)[C@@H](O)[C@@H](O)[C@@H]1O` (stereo partly shown) [mannose], for which the “competition ELISA, immobilised GST-CpLTL, binding of horseradish peroxidase (man)” value is reported as “Mannose showed competitive inhibition on the binding of HRP to GST-CpLTL protein”.
